Test results from ChEMBL document CHEMBL1141234, “Synthesis and SAR of highly potent dual 5-HT1A and 5-HT1B antagonists as potential antidepressant drugs” (Bioorg Med Chem Lett, 2005).
Active and inactive are the calls of the source. The calls are words filed in the database; no cut-off is given here.

Tests used:
[1] = biological target: T1, 5-hydroxytryptamine receptor 1B (Homo sapiens, UniProt P28222); assay: Intrinsic activity for 5HT1B receptor in FLIPR assay; type: functional
[2] = biological target: Sodium-dependent serotonin transporter (Homo sapiens) (UniProt P31645); assay: Inhibitory activity against SERT upto 10 uM
[3] = biological target: T2, 5-hydroxytryptamine receptor 1A (Homo sapiens, UniProt P08908); assay: Displacement of [35S]GTP-gamma-S from human recombinant 5HT1A receptor; type: functional
T2 sequence (P08908 whole entry): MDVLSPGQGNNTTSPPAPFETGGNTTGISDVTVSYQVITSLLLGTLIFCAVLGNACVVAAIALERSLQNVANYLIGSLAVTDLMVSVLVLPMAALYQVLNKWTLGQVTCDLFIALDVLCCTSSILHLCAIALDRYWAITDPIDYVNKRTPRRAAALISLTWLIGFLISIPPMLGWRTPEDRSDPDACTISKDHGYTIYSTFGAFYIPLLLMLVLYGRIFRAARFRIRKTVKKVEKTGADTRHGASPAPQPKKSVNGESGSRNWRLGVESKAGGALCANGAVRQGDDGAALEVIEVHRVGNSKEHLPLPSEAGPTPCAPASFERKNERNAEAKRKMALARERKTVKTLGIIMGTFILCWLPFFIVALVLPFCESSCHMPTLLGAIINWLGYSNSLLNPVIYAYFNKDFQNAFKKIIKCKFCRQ

[4] = biological target: 5-hydroxytryptamine receptor 5A (Homo sapiens, UniProt P47898); assay: Inhibitory activity against 5HT5A receptor
[5] = biological target: Sodium-dependent dopamine transporter (Homo sapiens) (UniProt Q01959); assay: Inhibitory activity against DAT upto 10 uM
[6] = biological target: Sodium-dependent noradrenaline transporter (Homo sapiens) (UniProt P23975); assay: Inhibitory activity against NET upto 10 uM
[7] = biological target: D(3) dopamine receptor (Homo sapiens, UniProt P35462); assay: Inhibitory activity against dopamine D3 receptor
[8] = biological target: T3, 5-hydroxytryptamine receptor 2C (Homo sapiens, UniProt P28335); assay: Inhibitory activity against 5HT2C receptor
T3 sequence (P28335 whole entry): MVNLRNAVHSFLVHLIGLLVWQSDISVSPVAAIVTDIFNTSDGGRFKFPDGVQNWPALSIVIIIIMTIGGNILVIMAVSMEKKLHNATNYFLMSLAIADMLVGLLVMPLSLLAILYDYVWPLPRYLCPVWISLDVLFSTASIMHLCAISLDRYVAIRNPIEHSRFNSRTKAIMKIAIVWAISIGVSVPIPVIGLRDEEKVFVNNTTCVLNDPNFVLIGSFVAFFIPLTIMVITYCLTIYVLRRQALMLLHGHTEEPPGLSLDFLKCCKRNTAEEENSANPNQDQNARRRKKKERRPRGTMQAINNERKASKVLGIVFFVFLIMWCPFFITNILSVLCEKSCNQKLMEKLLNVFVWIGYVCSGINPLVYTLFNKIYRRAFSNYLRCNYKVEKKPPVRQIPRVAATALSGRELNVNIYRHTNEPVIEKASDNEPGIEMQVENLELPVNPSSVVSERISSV

[9] = biological target: 5-hydroxytryptamine receptor 7 (Homo sapiens, UniProt P34969); assay: Inhibitory activity against 5HT7 receptor
[10] = biological target: T1, 5-hydroxytryptamine receptor 1B; assay: Functional activity in FLIPR assay for 5HT1B receptor
[11] = biological target: T4, 5-hydroxytryptamine receptor 1A (Homo sapiens) (UniProt P08908); assay: Intrinsic activity for 5HT1A receptor in [35S]GTP-gamma-S assay; type: functional
T4 sequence (whole entry): T2 sequence (P08908 whole entry)

[12] = biological target: T4, 5-hydroxytryptamine receptor 1A (Homo sapiens); assay: Functional activity in [35S]GTP-gamma-S assay for 5HT1A receptor
[13] = biological target: T5, 5-hydroxytryptamine receptor 1A (Rattus norvegicus, UniProt P19327); assay: Binding affinity for rat 5HT1A receptor
T5 sequence (P19327 whole entry): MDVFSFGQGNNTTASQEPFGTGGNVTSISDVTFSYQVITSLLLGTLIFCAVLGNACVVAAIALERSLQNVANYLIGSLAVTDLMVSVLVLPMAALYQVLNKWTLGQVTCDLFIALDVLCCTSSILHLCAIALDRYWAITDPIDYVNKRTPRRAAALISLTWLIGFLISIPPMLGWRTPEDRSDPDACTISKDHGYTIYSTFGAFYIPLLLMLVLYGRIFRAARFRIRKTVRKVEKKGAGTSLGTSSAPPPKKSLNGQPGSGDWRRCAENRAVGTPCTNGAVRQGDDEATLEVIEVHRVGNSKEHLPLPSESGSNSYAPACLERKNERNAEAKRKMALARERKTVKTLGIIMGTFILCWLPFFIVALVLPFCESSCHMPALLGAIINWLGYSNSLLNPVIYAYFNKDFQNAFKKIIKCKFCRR

[14] = biological target: T1, 5-hydroxytryptamine receptor 1B; assay: Inhibitory activity against human recombinant 5HT1B receptor co-expressed with G-protein chimera Gqo5 in HEK293 cells by FLIPR; type: functional, cell-based
[15] = biological target: T6, Adrenergic receptor alpha-1 (Homo sapiens, UniProt P35348+P25100+P35368); assay: Inhibitory activity against Adrenergic alpha-1 receptor; type: protein assay
T6 sequence (P35348 whole entry): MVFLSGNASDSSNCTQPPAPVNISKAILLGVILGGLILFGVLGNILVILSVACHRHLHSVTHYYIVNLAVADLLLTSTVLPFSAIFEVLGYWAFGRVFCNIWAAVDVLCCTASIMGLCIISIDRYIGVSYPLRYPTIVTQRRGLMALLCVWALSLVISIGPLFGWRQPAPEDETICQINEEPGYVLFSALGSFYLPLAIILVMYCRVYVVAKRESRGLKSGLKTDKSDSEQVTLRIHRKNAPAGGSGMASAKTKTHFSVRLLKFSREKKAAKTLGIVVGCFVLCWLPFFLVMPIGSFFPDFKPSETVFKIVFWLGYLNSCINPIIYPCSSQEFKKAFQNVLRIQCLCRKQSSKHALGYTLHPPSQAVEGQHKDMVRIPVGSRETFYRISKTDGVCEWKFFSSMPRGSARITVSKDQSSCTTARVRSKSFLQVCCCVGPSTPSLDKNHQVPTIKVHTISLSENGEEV
T6 sequence (P25100 whole entry): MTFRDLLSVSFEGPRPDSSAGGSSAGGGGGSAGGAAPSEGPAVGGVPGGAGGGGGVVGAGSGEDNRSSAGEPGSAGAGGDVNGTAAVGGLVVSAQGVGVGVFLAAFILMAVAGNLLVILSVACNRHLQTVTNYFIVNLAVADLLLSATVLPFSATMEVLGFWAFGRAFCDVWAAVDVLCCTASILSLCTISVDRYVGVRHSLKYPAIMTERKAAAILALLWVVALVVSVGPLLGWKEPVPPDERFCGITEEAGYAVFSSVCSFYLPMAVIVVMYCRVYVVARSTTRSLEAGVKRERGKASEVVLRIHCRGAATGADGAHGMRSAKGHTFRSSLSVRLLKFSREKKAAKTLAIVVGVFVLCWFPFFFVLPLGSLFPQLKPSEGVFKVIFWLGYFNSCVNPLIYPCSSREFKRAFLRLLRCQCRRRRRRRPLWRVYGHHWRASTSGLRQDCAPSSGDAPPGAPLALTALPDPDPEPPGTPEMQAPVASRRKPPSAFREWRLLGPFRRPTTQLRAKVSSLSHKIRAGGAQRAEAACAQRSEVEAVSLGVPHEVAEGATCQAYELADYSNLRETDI
T6 sequence (P35368 whole entry): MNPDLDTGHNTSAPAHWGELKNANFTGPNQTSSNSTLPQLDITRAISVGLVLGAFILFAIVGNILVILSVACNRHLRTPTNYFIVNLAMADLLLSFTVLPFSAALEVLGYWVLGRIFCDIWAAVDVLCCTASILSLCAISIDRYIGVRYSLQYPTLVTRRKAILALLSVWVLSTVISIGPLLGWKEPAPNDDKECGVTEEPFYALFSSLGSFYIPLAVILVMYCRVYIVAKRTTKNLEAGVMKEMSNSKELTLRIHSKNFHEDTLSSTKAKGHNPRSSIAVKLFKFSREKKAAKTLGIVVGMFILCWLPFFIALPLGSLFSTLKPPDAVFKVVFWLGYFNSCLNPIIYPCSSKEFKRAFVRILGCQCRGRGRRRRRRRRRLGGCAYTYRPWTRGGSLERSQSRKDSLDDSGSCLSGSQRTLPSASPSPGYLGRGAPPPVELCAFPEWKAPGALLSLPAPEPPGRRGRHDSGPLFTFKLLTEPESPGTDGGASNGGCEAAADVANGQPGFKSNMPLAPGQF

[16] = biological target: 5-hydroxytryptamine receptor 1B (Rattus norvegicus, UniProt P28564); assay: Binding affinity for rat 5HT1B receptor
5-hydroxytryptamine receptor 1B (Rattus norvegicus, UniProt P28564), sequence (P28564 whole entry): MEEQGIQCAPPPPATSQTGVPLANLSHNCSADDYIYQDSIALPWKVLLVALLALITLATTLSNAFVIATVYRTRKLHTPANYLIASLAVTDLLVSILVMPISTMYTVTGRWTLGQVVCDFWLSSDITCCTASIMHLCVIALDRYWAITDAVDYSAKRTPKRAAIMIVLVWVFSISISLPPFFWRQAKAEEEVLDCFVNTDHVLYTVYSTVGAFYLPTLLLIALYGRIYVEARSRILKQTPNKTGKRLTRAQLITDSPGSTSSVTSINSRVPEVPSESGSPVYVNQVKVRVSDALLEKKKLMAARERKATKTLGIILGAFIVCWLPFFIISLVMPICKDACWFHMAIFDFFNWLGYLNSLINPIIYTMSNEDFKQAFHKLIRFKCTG

T1 sequence (P28222 whole entry): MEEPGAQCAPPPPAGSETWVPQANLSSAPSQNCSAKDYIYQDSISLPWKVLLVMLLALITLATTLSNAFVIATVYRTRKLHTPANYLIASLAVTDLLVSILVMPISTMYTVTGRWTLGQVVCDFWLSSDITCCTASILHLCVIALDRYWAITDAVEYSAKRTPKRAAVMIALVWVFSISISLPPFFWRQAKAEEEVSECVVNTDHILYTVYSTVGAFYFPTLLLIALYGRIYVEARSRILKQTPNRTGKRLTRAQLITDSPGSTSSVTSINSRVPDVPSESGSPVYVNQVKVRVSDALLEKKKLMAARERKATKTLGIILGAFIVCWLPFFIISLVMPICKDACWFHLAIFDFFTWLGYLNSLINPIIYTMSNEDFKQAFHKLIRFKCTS
5-hydroxytryptamine receptor 5A, sequence (P47898 whole entry): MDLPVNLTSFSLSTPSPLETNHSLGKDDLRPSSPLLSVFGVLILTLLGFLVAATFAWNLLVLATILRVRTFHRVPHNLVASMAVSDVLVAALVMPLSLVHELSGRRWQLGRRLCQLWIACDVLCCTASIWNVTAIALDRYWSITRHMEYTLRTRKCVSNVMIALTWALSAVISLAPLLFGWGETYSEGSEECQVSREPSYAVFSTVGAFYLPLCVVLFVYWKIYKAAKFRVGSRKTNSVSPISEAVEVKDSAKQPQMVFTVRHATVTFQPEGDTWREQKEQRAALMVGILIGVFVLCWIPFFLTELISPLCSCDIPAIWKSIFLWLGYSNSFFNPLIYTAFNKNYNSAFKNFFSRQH
Sodium-dependent serotonin transporter (Homo sapiens), sequence (P31645 whole entry, looked up): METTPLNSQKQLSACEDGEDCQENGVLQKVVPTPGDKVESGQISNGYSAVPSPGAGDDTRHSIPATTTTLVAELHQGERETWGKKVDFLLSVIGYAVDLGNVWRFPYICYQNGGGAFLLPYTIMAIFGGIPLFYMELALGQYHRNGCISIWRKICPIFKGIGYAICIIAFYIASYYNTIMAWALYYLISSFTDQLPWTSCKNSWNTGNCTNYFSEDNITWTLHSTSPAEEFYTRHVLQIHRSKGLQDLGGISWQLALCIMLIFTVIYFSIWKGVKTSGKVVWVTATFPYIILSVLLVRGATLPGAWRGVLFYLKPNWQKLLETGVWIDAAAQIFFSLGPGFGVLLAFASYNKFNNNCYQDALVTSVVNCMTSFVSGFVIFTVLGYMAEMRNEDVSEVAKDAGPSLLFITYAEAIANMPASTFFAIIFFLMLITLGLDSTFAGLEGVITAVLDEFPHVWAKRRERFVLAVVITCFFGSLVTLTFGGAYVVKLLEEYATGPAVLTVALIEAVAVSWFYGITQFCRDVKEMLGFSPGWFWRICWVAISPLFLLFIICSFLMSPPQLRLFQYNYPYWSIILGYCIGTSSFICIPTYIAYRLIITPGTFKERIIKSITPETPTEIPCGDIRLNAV
5-hydroxytryptamine receptor 7, sequence (P34969 whole entry): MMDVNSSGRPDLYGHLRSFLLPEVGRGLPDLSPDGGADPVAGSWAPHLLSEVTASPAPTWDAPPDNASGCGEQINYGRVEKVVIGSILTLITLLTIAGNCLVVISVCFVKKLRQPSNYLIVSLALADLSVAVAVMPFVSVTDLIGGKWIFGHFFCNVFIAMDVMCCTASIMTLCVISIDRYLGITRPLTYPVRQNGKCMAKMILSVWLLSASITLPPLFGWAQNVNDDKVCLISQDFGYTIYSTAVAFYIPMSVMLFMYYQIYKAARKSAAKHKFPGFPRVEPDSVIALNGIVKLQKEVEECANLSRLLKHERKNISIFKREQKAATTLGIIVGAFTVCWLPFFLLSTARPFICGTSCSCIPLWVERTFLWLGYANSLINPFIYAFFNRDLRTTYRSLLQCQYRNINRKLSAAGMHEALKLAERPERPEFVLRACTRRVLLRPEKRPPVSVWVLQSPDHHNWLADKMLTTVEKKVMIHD
Sodium-dependent dopamine transporter (Homo sapiens), sequence (Q01959 whole entry): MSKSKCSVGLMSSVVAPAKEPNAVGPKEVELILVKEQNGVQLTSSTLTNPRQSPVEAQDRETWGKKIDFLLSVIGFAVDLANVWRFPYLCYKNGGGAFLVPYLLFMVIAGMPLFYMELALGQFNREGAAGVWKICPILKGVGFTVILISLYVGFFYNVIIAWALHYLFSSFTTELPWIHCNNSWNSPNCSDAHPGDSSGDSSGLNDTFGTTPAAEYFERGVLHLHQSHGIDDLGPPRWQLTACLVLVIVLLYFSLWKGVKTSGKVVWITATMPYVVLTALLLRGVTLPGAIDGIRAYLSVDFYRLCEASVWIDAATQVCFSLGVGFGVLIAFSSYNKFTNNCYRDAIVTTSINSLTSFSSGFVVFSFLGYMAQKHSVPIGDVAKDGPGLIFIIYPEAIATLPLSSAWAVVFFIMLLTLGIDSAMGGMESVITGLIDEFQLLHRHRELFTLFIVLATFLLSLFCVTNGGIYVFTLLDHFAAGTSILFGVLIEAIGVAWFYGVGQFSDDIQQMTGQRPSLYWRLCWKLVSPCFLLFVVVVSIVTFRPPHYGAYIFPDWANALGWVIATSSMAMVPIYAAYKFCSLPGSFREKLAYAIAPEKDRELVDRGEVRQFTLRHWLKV
D(3) dopamine receptor, sequence (P35462 whole entry): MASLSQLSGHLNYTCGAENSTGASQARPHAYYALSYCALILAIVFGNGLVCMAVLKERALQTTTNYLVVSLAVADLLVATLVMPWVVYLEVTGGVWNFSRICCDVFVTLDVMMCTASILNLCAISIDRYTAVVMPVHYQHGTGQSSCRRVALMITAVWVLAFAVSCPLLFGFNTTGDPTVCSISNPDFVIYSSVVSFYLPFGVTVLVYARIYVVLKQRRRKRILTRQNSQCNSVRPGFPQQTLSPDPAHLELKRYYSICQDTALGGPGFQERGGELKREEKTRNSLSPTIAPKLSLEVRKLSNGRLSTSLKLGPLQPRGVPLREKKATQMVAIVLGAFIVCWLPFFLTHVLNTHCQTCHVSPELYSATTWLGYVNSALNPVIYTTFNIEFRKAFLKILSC
Sodium-dependent noradrenaline transporter (Homo sapiens), sequence (P23975 whole entry): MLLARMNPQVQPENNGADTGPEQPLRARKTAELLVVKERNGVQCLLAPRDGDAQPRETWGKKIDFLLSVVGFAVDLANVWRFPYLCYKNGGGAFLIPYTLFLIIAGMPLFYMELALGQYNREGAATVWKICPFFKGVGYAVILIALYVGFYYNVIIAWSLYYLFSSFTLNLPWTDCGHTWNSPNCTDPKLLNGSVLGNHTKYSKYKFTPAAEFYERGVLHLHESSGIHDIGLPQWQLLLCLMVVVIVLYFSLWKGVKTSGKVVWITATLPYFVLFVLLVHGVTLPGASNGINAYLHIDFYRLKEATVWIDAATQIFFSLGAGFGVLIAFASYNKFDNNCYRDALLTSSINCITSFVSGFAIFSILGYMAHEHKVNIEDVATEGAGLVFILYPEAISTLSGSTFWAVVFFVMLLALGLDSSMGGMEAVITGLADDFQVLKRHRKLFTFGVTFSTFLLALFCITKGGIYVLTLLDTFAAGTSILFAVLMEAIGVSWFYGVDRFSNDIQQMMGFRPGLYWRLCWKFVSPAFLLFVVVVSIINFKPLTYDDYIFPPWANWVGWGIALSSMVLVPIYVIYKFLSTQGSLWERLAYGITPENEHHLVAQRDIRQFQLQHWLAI

| Structure (SMILES) | Emax [1] | Ki [3] | Emax [11] | Ki [14] | Ki [15] | Activity ([10]; filed as partial agonist) | Activity ([12]; filed as partial agonist) | Activity [2] | IC50 [3] | Ki [4] | Activity [5] | Activity [6] | Ki [7] | Ki [8] | Ki [9] | Activity ([10]; filed as antagonist) | Activity ([12]; filed as antagonist) | Ki [13] | IC50 [14] | Ki [16] |
| --- | --- | --- | --- | --- | --- | --- | --- | --- | --- | --- | --- | --- | --- | --- | --- | --- | --- | --- | --- | --- |
| CN1CCc2c(sc3ncn(CCN4CCN(c5ccnc6ccccc56)CC4)c(=O)c23)C1 | 9% | 6.5 nM | 6% | 9.7 nM | 118.1 nM | – | – | inactive | 1300 nM | > 1000 nM | inactive | inactive | 1.3 nM | 5500 nM | 4480 nM | Antagonist | Antagonist | 23 nM | 85 nM | 117 nM |
| CN1CCc2c(sc3ncn(CCN4CCN(c5ccccc5OCc5ccccc5)CC4)c(=O)c23)C1 | 20% | 1.9 nM | 10% | 1.2 nM | 4 nM | Partial agonist | Partial agonist | – | – | – | – | – | – | – | – | – | – | – | – | – |
| CN1CCc2c(sc3ncn(CCN4CCN(c5ccccc5Oc5ccccc5)CC4)c(=O)c23)C1 | 20% | 0.9 nM | 10% | 1.1 nM | 0.5 nM | Partial agonist | Partial agonist | – | – | – | – | – | – | – | – | – | – | – | – | – |

Further lines, with some results ahead:

| Emax [1] | Ki [3] | Emax [11] | Ki [14] | Ki [15] | Activity ([10]; filed as partial agonist) | Activity ([12]; filed as partial agonist) | Structure (SMILES) | Activity [2] | IC50 [3] | Ki [4] | Activity [5] | Activity [6] | Ki [7] | Ki [8] | Ki [9] | Activity ([10]; filed as antagonist) | Activity ([12]; filed as antagonist) | Ki [13] | IC50 [14] | Ki [16] |
| --- | --- | --- | --- | --- | --- | --- | --- | --- | --- | --- | --- | --- | --- | --- | --- | --- | --- | --- | --- | --- |
| 20% | 1.5 nM | < 10% | 1.7 nM | 26.7 nM | Partial agonist | – | CN1CCc2c(sc3ncn(CCN4CCN(c5cccc6ncccc56)CC4)c(=O)c23)C1 | – | – | – | – | – | – | – | – | – | Antagonist | – | – | – |
| < 20% | 5.6 nM | 10% | 11.9 nM | 12.1 nM | – | Partial agonist | COc1ccc(C)cc1N1CCN(CCn2cnc3sc4c(c3c2=O)CCN(C)C4)CC1 | – | – | – | – | – | – | – | – | Antagonist | – | – | – | – |
